Patent US20050026866A1 (priority 2002, published 2005)
Like-named read-outs stand apart in the source and are kept apart here.

Columns and labels:
Type in all cases: cell-based
[1] = system: Bordetella attachment and invasion into human melanoma cell line Skmel-23/C22
Experimental: Bordetella pertussis was cultured for 48-72 h on Bordet-Gengou agar plates (Remel, Inc.) in a 37° C. incubator. Prior to exposure of bacteria to mammalian cells (15-30 minutes), the bacteria were loop-transferred to Luria-Bertani (LB) liquid growth medium and adjusted to a concentration of 10^9 cfu/ml (OD600=0.5). Human Skmel-23/C22 metastatic melanoma cells, normal human melanocytes, or normal human fibroblasts were inoculated into Corning 12 well tissue culture plates (2-4×10^4 cells/well) in antibiotic-free DMEM growth medium supplemented with 10% fetal bovine serum, and placed in a gassed, humidified incubator, at 37° C. After 24 h, melanoma cells were fed with 1 ml fresh medium, and 15-20 h later, Bordetella pertussis strain 536 was added as described below. Potential inhibitors of Bordetella attachment and invasion of melanoma cells were added immediately before, or up to 2 h before addition of bacteria, as noted. […] Melanoma cells were then plated onto Bordet-Gengou agar plates in serial dilutions, incubated at 37° for 4d, and Bordetella pertussis were quantitated by colony counts as ‘colony forming units’ (cfu). […]
Structural requirements on cancer cells for attachment and invasion of B. pertussis. Quantitative invasion assays were carried out with various additives to investigate structural requirements on human melanoma cells for attachment and invasion of B. pertussis. […]

[2] = system: SKMel-23 human melanoma cells; settings: L-histidine alone, no B. pertussis strain
Experimental: Skmel-23/C22 human melanoma cells were cultured 15 h with or without the addition of B. pertussis to the culture medium.
(§1) Cancer cells tested were human carcinomas of the breast, lung, and kidney, and melanoma. Toxicity of B. pertussis strain 536, but not of Tohama I, was dependent on the simultaneous addition of rich nutrient broth such as Luria-Bertani bacterial growth medium, or amino acid-rich broths such as tryptone or casamino acids. […] The principal active ingredient in these broths was the amino acid histidine. […] Of 18 amino acids tested, only histidine induced a Bordetella-mediated cytotoxic/lytic effect.

[3] = system: human carcinomas of the breast, lung, and kidney, and melanoma; settings: without bacteria
From the text: as §1

## C[C@H](O)[C@@H](O)[C@@H](O)[C@H](O)C=O [L-fucose]
[1]; 0.2% wt/vol, added 5 min. prior to bacteria, implied target fucosylated structures
  Bordetella (cfu/well) (% Control +/− S.D.): 52 ± 14 % Control

## N[C@@H](Cc1c[nH]cn1)C(=O)O [L-histidine]
[2]
  melanoma cells/well (24 h post-treatment): 1.7 ± .07 × 10^5 melanoma cells/well
[2]; 24 h post-treatment
  melanoma cells/well, % untreated cultures: 106 % untreated cultures
[3]
  toxicity of histidine alone: no toxicity

## Arg-Gly-Asp [RGD]
[1]; 0.8 mg/ml, added 2 h prior to bacteria, implied target Arg-Gly-Asp tripeptide sequence
  Bordetella (cfu/well) (% Control +/− S.D.): 50 ± 5 % Control
